From PMC8224453, “A New PqsR Inverse Agonist Potentiates Tobramycin Efficacy to Eradicate Pseudomonas aeruginosa Biofilms” (Advanced Science, 2021)
pIC50: −log10 of the molar value. Converted amounts (≈) assume the structure as drawn.

What was measured:
5-HT2A = target: T1, 5-HT2A (Homo sapiens, UniProt P28223); test: CEREP off-target panel, agonist radioligand; type: binding; settings: @10µM
T1 construct: Eurofins Discovery (SafetyScreen44 Panel, Cerep) P270
Description: (§1) 5. In vitro ADME/T and Safety Pharmacology
(§2) 5.1. CEREP off-targets assay
(§3) Experiments towards possible off-target effects were conducted following Eurofins Discovery protocol. Detailed information about the assays can be found in: https://www.eurofinsdiscoveryservices.com/catalogmanagement/viewitem/SafetyScreen44- […]
(§4) Table S3. Possible CEREP off-targets. entry off-target QSI 4 QSI 17 Assay
(§5) (%binding (%binding method
(§6) (1 picture or pasted object on this page, not shown here)

AR = test: CEREP off-target panel, agonist radioligand; type: binding; settings: @10µM
Description: as §1, §2, §3, §4, §5, §6

5-HT2B = target: T2, 5-HT2B (Homo sapiens, UniProt P41595); test: CEREP off-target panel, agonist radioligand; type: binding; settings: @10µM
T2 construct: Eurofins Discovery (SafetyScreen44 Panel, Cerep) P270
T2 sequence (P41595 whole entry): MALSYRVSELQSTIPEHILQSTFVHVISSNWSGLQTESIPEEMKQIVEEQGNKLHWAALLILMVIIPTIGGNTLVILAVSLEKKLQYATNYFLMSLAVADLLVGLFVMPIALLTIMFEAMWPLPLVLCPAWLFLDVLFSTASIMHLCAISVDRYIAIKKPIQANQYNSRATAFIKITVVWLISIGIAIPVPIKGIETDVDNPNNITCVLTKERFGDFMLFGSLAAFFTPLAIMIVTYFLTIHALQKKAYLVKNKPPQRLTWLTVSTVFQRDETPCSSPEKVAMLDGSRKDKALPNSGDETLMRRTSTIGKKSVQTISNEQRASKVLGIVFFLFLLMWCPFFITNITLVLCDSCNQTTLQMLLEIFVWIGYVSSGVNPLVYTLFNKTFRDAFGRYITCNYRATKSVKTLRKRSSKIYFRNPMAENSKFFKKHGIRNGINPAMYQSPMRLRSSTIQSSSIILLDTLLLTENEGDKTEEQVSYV
Description: as §1, §2, §3, §4, §5, §6

[1] = Cytotoxicity assay in HepG2; type: cell-based; settings: human, HepG2 cells, read-out: Cytotoxicity, viable cells
Description: Hep G2 or HEK293 cells (2 × 10^5 cells per well) were seeded in 24-well, flat-bottomed plates. Culturing of cells, incubations, and OD measurements were performed as described previously with slight modifications.[8] Twenty-four hours after seeding the cells, the incubation was started by the addition of test compound in a final DMSO concentration of
1%. […] At least two independent measurements were performed for each compound.

hERG channel = target: T3, hERG channel (Homo sapiens, UniProt Q12809); test: hERG functional patch-clamp inhibition assay; type: cell-based
T3 construct: Cyprotex (contract assay)
T3 sequence (Q12809 whole entry): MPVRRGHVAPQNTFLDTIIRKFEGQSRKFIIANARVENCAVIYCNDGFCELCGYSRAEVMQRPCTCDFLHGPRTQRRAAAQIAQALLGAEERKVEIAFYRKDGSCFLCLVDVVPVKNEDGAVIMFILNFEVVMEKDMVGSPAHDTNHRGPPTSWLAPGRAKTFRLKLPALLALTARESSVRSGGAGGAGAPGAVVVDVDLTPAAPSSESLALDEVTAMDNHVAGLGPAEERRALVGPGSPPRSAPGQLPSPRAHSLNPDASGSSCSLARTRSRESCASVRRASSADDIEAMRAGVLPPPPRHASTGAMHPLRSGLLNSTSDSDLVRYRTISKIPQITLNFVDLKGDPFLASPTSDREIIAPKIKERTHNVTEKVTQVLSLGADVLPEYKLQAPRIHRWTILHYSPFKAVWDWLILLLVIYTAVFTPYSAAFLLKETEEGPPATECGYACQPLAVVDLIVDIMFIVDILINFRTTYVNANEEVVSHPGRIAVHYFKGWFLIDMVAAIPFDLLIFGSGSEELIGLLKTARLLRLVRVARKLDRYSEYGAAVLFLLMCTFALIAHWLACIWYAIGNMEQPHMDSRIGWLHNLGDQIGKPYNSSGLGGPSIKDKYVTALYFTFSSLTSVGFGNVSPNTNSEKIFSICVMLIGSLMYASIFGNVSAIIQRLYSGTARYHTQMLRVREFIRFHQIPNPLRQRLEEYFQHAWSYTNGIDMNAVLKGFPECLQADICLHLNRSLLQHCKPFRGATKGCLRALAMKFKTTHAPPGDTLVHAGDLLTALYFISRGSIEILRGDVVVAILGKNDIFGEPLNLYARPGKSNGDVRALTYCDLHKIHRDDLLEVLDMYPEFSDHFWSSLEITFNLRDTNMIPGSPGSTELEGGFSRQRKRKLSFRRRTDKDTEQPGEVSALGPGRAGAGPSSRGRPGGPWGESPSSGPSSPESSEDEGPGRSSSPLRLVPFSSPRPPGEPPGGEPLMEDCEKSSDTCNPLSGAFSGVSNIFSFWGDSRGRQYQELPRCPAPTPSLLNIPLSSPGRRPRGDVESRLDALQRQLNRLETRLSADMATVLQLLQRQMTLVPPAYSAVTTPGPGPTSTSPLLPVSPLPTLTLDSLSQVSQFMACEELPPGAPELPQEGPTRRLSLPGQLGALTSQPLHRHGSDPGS
Description: 5.2. CYP and hERG inhibition
Assessment of in vitro drug safety regarding Cytochrom P450 (CYP) inhibition and inhibiton of human ether-à-go-go related gene (hERG) channel with a functional (patch-clamp-based) assay were performed at Cyprotex. Detailed information about the assays can be found in: https://www.cyprotex.com/admepk/in-vitro-metabolism/cytochrome-p450-inhibition, and […]

[2] = Permeability across Calu-3 monolayer; type: in vitro ADME; settings: human; Calu‐3 lung epithelial cells
Description: (§7) subtraction and plotted using GraphPad Prism 8.4.2 (GraphPad Software, San Diego, CA, […]
USA). Solubility (S) was determined based on the First X value of AUC function using a […]
For the evaluation of combined phase I and phase II metabolic stability, the compound (1 μM) was incubated with 1 mg/mL pooled liver S9 fraction from the respective species (Xenotech), […]
2 mM NADPH, 1 mM UDPGA, 10 mM MgCl2, 5 mM GSH and 0.1 mM PAPS at 37 °C for […]
0, 5, 15, 30 or 60 min. The metabolic stability of Testosterone (1 μM) and verapamil (1 μM) […]
were determined in parallel to confirm the enzymatic activity of the S9 fraction. The […]
incubation was stopped by precipitation of S9 enzymes with 2 volumes of cold acetonitrile […]
containing internal standard (750 nM Diphenhydramine). Samples were stored on ice for 10 […]
Concentration of the remaining test compound at the different time points was analyzed by […]
Permeability of compound 4 and 17 was assessed in vitro with Calu-3 HTB-55 cell line (ATCC). […]
Pyruvate. […] TEER was monitored during the experiment and epithelial barriers were considered compromised if the TEER fell below 300 during 4 h of experiment duration. […] 50 µL of sample was mixed with 150 µL of ice-cold acetonitrile containing internal standard diphenhydramine (1 µM) and the concentration of compound was analyzed with LC-MS/MS. […]

[3] = Kinetic turbidimetric solubility assay; type: physicochemical; settings: PBS; for solubility kinetic at 5 min: aqueous buffer, kinetic from dmso stock, read-out: Kinetic solubility S kin
Description: 5.4. Kinetic Turbidimetric Solubility Assay
The desired compounds were sequentially diluted in DMSO in a 96-well plate. A 3 µL of each well were transferred into another three 96-well plates, followed by addition of 147 µL of PBS. Plates were shaken for 5 min at 600 rpm at room temperature (r.t.), and the absorbance at 620 nm was measured. Absorbance values were normalized by blank […]
as §7

T1 sequence (P28223 whole entry): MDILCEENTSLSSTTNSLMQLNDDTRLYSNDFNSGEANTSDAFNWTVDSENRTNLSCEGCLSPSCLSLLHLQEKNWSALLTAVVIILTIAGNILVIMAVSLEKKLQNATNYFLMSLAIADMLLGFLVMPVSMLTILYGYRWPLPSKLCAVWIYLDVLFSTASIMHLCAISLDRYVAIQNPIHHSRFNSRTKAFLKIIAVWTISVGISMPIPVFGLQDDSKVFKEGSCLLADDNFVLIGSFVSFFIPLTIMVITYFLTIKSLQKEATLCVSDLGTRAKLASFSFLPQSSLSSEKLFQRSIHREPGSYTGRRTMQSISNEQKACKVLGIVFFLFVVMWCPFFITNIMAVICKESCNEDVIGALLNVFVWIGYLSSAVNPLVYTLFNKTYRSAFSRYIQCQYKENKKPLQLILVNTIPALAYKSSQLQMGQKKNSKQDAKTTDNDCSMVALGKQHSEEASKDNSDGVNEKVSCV

SMILES	% binding, 5-HT2A (5-HT2A) [%]	% binding, AR (AR) [%]	% binding, 5-HT2B (5-HT2B) [%]	viability at 48 h, 25 × 10^−6 M ([1]; HepG2, @25 × 10^−6 M) [%]	pIC50 (hERG channel)	Papp at 4 h [2] [×10⁻⁶ cm/s]	solubility kinetic at 5 min [3] [µM]	viability at 48 h, 75 × 10^−6 M ([1]; HepG2, @75 × 10^−6 M) [%]	Kinetic solubility S kin [3] [µM]
FC(F)(F)c1cc(NCc2cn(-c3ccc(Oc4ccccc4)cc3)nn2)ccn1 [Compound 4]	65.15	-10.10	55.25	55	< 4.60	5.3	7.7 (≈ 3.17 µg/mL)		
COc1ccc(-n2cc(CNc3ccnc(C(F)(F)F)c3)nn2)cc1Cl [Compound 17]	22.02	57.04	73.79		< 4.60	11.4	64 (≈ 24.6 µg/mL)	68	64.1
